Measurements published in PMC11443480, “Natural Rubrolides and Their Synthetic Congeners as Inhibitors of the Photosynthetic Electron Transport Chain” (Journal of Natural Products, 2024).
Where “and” joins values, the source holds several entries; their conditions need not be identical. Equal values may be shown once. Entries after “also recorded” stand apart in the source; their conditions may differ.

What was measured:
[1] = test system: photosynthetic electron transport chain in isolated spinach thylakoids; assay: Hill reaction: light-dependent ferricyanide reduction in isolated spinach thylakoids (basal); assay type: biochemical, spinach (Spinacea oleracea L.); details: basal conditions, 0.05–100 μM tested, triplicate; for IC50: read-out: IC50, inhibition by 50% of the light-dependent ferricyanide reduction
Method: The ability of natural rubrolides and their synthetic analogues to interfere with the chloroplast electron transport chain was evaluated by measuring the Hill reaction in thylakoid membranes isolated from spinach leaves. The results were summarized as the concentrations able to inhibit by 50% the rate measured in untreated controls (IC50, Table 2).
Thylakoid membranes were isolated from spinach (Spinacea oleracea L.) leaves. Plant material was resuspended in 5 mL g^–1 of ice-cold 20 mM Tricine-NaOH buffer (pH 8.0) containing 10 mM NaCl, 5 mM MgCl2, and 0.4 M sucrose and homogenized for 30 s in a blender at maximal speed. The homogenate was filtered through surgical gauze, and the filtrate was centrifuged at 4 °C for 1 min at 500g; the supernatant was further centrifuged for 10 min at 1,500g. Pelleted chloroplasts were osmotically swollen by resuspension in a sucrose-lacking buffer. The suspension was immediately diluted 1:1 with sucrose-containing buffer, kept on ice in the dark, and used within a few hours from the preparation. Chlorophyll content was calculated after diluting with 80% (v/v) acetone on the basis of Arnon’s formula. The basal rate of photosynthetic electron transport was measured by following light-driven ferricyanide reduction. Membrane aliquots corresponding to 3 μg of chlorophyll were incubated at 24 °C in wells of 96-well-plates in a final volume of 200 μL in the presence of 20 mM Tricine-NaOH buffer (pH 8.0), 10 mM NaCl, 5 mM MgCl2, 0.2 M sucrose, and 2 mM K3Fe(CN)6. The assay was initiated by exposure to saturating light (600 μmol m^–2 s^–1), and the rate of ferricyanide reduction was measured at 30 s intervals for 10 min using a Ledetect 96 plate reader (Labexim, Lengau, Austria) equipped with a LED plugin at 420 nm. Activity was calculated over the linear portion of the curve from a molar extinction coefficient of 1,000 M^–1 cm^–1. Rubrolides were dissolved in DMSO to obtain 10 mM solutions, which were then diluted with H2O, as appropriate. Their effect upon the Hill reaction was evaluated in parallel assays in which the compounds were added to the reaction mixture to concentrations ranging from 0.05 to 100 μM. Each dose was carried out at least in triplicate, and results were expressed as percentage of untreated controls. Mean values ± SE over replicates are reported. The concentrations causing 50% inhibition (IC50) and their confidence limits were estimated by nonlinear regression analysis using Prism 6 for Windows, version 6.03 (GraphPad Software).

rapeseed = test system: rapeseed; parameters: method as in PMID 38695089; details: cited from earlier work; for Inhibition of rapeseed growth: greenhouse treatments
Raphanus sativus = assay: Growth of Raphanus sativus seedlings sown in the presence of the compound; assay type: in vivo, Raphanus sativus cv Scarlet Champion; details: 10 μM in agarized medium; growth measured at three-leaf stage, 3 weeks after sowing
Method: The ability of these compounds to interfere with plant growth was evaluated by measuring the growth of Raphanus sativus seedlings that had been sown in the presence of a given rubrolide. […] In that case, compound 5 was also found inhibitory, but at a 20-fold higher concentration (200 μM).
Figure 1 Effect of natural rubrolides 1–7 on the growth of the model plant Raphanus sativus. Seeds were sown in the presence of a given compound at a concentration of 10 μM. Controls received the same volume of DMSO (0.1%) used to dissolve the rubrolides. The commercial herbicide hexazinone was also included, as a positive control. Growth was measured when untreated plants reached the three-leaf stage, 3 weeks after sowing. Results were analyzed using Prism 6 for Windows by means of the Kolmogorov–Smirnov normality test (P = 0.05), and then subjected to 1-way ANOVA. […] Results were plotted as a box and whiskers plot showing 10–90th percentiles.
Seeds of Raphanus sativus cv Scarlet Champion were surface sterilized by treatment with ethanol for 4 min and with 3% NaClO containing 0.04% Triton X-100 for 8 min under vacuum. […] The fresh biomass of each seedling was measured at that point by a destructive harvest. […]

[2] = test system: photosynthetic electron transport chain in isolated spinach chloroplast; assay: Ferricyanide reduction under uncoupling and phosphorylating conditions; assay type: biochemical, spinach (Spinacea oleracea L.); details: 10^–7 to 10^–5 M range
Method: Diuron was included as a positive control.
(§1) Phosphorylating electron flow was evaluated under the same conditions but in the presence of 0.5 mM ADP and 2 mM K2HPO4. Uncoupled activity was measured following the addition of 2 mM NH4Cl to the basal reaction mixture containing aliquots of membrane preparations corresponding to 1.5 μg of chlorophyll. To evaluate the effect on PSII only, uncoupled activity was blocked by the addition of the cytochrome b6f inhibitor 2,5-dibromo-6-isopropyl-3-methyl-1,4-benzoquinone (DBMIB) at […], and an electronic transfer from H2O to ferricyanide that excludes PSI (H2O → PSII → D1 protein → phenylendiamine → ferricyanide) was restored through the addition of 0.1 mM phenylenediamine. In this case, due to the lower reduction rate, aliquots of membrane preparations corresponding to 6 μg of chlorophyll were used.

PSII = target: T1, PSII (Spinacia oleracea, UniProt P69560); assay: Partial electron flow involving PSII only (excluding PSI); assay type: biochemical, spinach (Spinacea oleracea L.); details: DBMIB-blocked, phenylenediamine-restored flow excluding PSI
T1 construct: Thylakoid membranes were isolated from spinach (Spinacea oleracea L.) leaves; from tissue; host or cells: spinach leaves (thylakoid membranes)
Text: An interference with the cytochrome b6f complex cannot be completely excluded, but this difference could simply rely on the experimental conditions employed. To evaluate the effect on PSII only, uncoupled activity is blocked by the addition of the cytochrome b6f inhibitor 2,5-dibromo-6-isopropyl-3-methyl-1,4-benzoquinone, and an electronic transfer from H2O to ferricyanide that excludes PSI is restored through addition of phenylenediamine. […] A similar effect was previously noticed also in the case of other inhibitors.[10b],[10e],[10j]
as §1

Compound | melting point | IC50 [1] | further results
COc1ccc(C2=C(Cl)C(=O)O/C2=C\c2ccc(OC)c(Br)c2)cc1Cl [Compound 19] | – | – | IC50, inhibition by 50% of the light-dependent ferricyanide reduction [1]: no activity and n.e.
O=C1O/C(=C\c2ccc(F)cc2Cl)C(c2ccccc2)=C1Cl [Compound 13] | 145.3 to 147 °C | 35.9 ± 7.7 µM | –
rubrolide C | – | – | Inhibition of rapeseed growth (rapeseed): inhibit rapeseed growth
O=C1C=C(c2ccc(O)cc2)/C(=C/c2ccc(O)cc2)O1 [Compound 5, rubrolide E] | – | – | Inhibition of rapeseed growth at 200 μM (rapeseed; 200 μM (20-fold higher concentration)): inhibitory; Inhibition of rapeseed growth (rapeseed): inhibit rapeseed growth; Effect on growth of Raphanus sativus seedlings (phytotoxicity) (Raphanus sativus): ineffective; IC50, inhibition by 50% of the light-dependent ferricyanide reduction [1]: ineffective; also recorded: lack activity; also recorded: n.e. ^a
COc1ccc(/C=C2\OC(=O)C=C2c2ccc(O)cc2)cc1 [Compound 6, rubrolide F] | – | > 25 µM and 29.3 µM | Inhibition of rapeseed growth (rapeseed): inhibit rapeseed growth
O=C1O/C(=C\c2ccc(O)c(Br)c2)C(c2ccc(O)c(Cl)c2)=C1Cl [Compound 20, (Z)-5-(3-Bromo-4-hydroxybenzylidene)-3-chloro-4-(3-chloro-4-hydroxyphenyl)furan-2(5H)-one] | 210 to 213 °C (dec.) | 4.97 ± 1.05 µM | Effect on ferricyanide reduction under uncoupling and phosphorylating conditions [2]: progressive reduction of the activity; Effect on partial electron flow involving PSII only versus whole transport chain (PSII): able to inhibit the electron transfer from PSII to the cytochrome b6f complex
rubrolide I [Compound 2] | – | 5.54 ± 0.98 µM | Effect on ferricyanide reduction under uncoupling and phosphorylating conditions [2]: progressive reduction of the activity; Effect on partial electron flow involving PSII only versus whole transport chain (PSII): able to inhibit the electron transfer from PSII to the cytochrome b6f complex
COc1ccc(Cl)cc1C1=C(Cl)C(=O)O/C1=C\c1ccc2c(c1)OCO2 [Compound 15] | 134.9 to 136.2 °C | – | –
O=C1O/C(=C\c2ccc(-c3ccccc3)s2)C(c2ccc(F)cc2)=C1Cl [Compound 16] | 218.3 to 219.8 °C (dec.) | 266 ± 272 µM | –
COc1ccc(/C=C2\OC(=O)C(Cl)=C2c2ccccc2)cc1 [Compound 12] | – | 257 ± 273 µM | –
O=C1O/C(=C\c2ccc(O)c(Br)c2)C(c2ccc(O)c(Br)c2)=C1Cl [Compound 3, rubrolide K] | – | 8 ± 2.05 µM | –
O=C1O/C(=C\c2ccc(O)c(Br)c2)C(c2cc(Br)c(O)c(Br)c2)=C1Cl [Compound 4, rubrolide O] | – | 4.37 ± 0.8 µM | Effect on ferricyanide reduction under uncoupling and phosphorylating conditions [2]: progressive reduction of the activity; Effect on partial electron flow involving PSII only versus whole transport chain (PSII): able to inhibit the electron transfer from PSII to the cytochrome b6f complex
O=C1O/C(=C\c2ccnc(Br)c2)C(c2ccc(F)cc2)=C1Cl [Compound 17] | 150.3 to 152.8 °C | – | IC50, inhibition by 50% of the light-dependent ferricyanide reduction [1]: n.e. ^a
O=C1O/C(=C\c2cc(Br)c(O)c(Br)c2)C(c2cc(Br)c(O)c(Br)c2)=C1Cl [Compound 1, rubrolide B] | – | 8.62 ± 1.89 µM | –
CN(C)C(=O)Nc1ccc(Cl)c(Cl)c1 [Diuron, reference compound] | – | 0.27 ± 0.01 µM | Effect on partial electron flow involving PSII only versus whole transport chain (PSII): very similar effectiveness
